For series [1] the following is noted: relative to therapeutic range; cited from earlier work.
The nature of series [2]: In vitro iontophoretic flux of rotigotine, three-chamber flow-through diffusion cells. Format: in vitro ADME, human. The conditions noted are these: donor pH 5, 500 μA/cm^2, 20° C. As for the experimental part: In vitro iontophoretic studies for the administration of rotigotine were carried out with three-chamber flow-through diffusion cells as described by […] al. ([…]. Boddé, “Validation and testing of a new iontophoretic continuous flow through transport cell”, J. Control. Release (1998), 51, […]). On both sides of the acceptor compartment human stratum corneum (SC) was situated. A dialysis membrane having a 5.000 Da cut-off was used as supporting membrane. The volume of the outer chambers was approximately 2 ml, while the volume of the acceptor compartment was 0.54 ml. The two outer chambers contained the silver plate (anode) or silver/silver chloride (cathode) driver […]. The donor phase consisted of rotigotine solution buffered with 5 mM citrate buffer (2.1 mM sodium citrate dihydrate and 2.9 mM citric acid). Using this set-up, a pH in the donor chamber of 5, a current density of 500 μA/cm^2, a pH in the acceptor chamber of 7.4, a temperature of 20° C. and an NaCl concentration in the donor chamber of 70 mmol/l, the flux of rotigotine was measured for different drug concentrations in the donor phase. Using a similar procedure as in Example 1 and a concentration of rotigotine of 1.4 mg/ml (3.98 mM), a pH in the donor chamber of 5, a current density of 500 μA/cm^2, a pH in the acceptor chamber of 7.4 and a temperature of 20° C., but substituting triethylammonium chloride (TEACl) or tributylammonium chloride (TBACl) for NaCl, the influence of the different cations on the flux was evaluated. The concentration of the chloride salts in the donor solution was 70 mmol/l. Using a similar procedure and the same parameters as in Example 2, the influence of reducing the pH in the acceptor chamber from 7.4 to 6.2 was evaluated for different chloride salts. The concentration of the chloride salts in the donor solution was 70 mmol/l.

Series [3] in a line: Solubility of rotigotine in the donor phase. In kind it is physicochemical. The source says:
To provide for an optimal flux across human stratum corneum it was also necessary to provide for a sufficient concentration of Cl^− ions for the electrode reaction in the donor phase.

For series [4] the following is noted: relative to therapeutic concentration range of 1.4 to 10.7 ng/ml; cited from earlier work.

Regarding `CCCN(CCC)CCc1cccc2c1CC(=O)N2` [ropinirole], the “fluxes obtained by iontophoretic administration” value in series [1] is listed as “lower end of the therapeutic range”.
For the compound `CCCN(CCc1cccs1)[C@H]1CCc2c(O)cccc2C1` [Rotigotine, (−)-5,6,7,8-tetrahydro-6-[propyl-[2-(2-thienyl)ethyl]-amino]-1-naphthalenol], the “Flux Rotigotine” value came out at 53.2 nmol/cm^2/h in series [2] (co-ions source NaCl 70 mmol/l, rotigotine 1.4 mg/ml (3.98 mM), acceptor pH 7.4); 58.9 nmol/cm^2/h in series [2] (co-ions source NaCl 70 mmol/l, rotigotine 1.4 mg/ml, acceptor pH 6.2); 62.0 nmol/cm^2/h in series [2] (co-ions source TBACl 70 mmol/l, rotigotine 1.4 mg/ml (3.98 mM), acceptor pH 7.4); 76.5 nmol/cm^2/h in series [2] (co-ions source TBACl 70 mmol/l, rotigotine 1.4 mg/ml, acceptor pH 6.2); 72.8 nmol/cm^2/h in series [2] (co-ions source TEACl 70 mmol/l, rotigotine 1.4 mg/ml (3.98 mM), acceptor pH 7.4); 43.2 nmol/cm^2/h in series [2] (co-ions source TEACl 70 mmol/l, rotigotine 1.4 mg/ml, acceptor pH 6.2). Besides, the “Flux Rotigotine” value in series [2] (rotigotine donor conc. 0.5 mg/ml (1.4 mM), NaCl 70 mmol/l, acceptor pH 7.4) is reported as 22.9 nmol/cm^2/h; in series [2] (rotigotine donor conc. 1.0 mg/ml (2.8 mM), NaCl 70 mmol/l, acceptor pH 7.4) it was 30.2 nmol/cm^2/h; in series [2] (rotigotine donor conc. 1.4 mg/ml (3.98 mM), NaCl 70 mmol/l, acceptor pH 7.4), 53.2 nmol/cm^2/h. For the same compound, the solubility of rotigotine entry is reported as “reduces the solubility” in series [3] (effect of addition of chloride salts) and “decreases when the pH is increased” in series [3] (effect of increasing pH).
In the case of `CN1CCc2cccc3c2[C@H]1Cc1ccc(O)c(O)c1-3` [R-apomorphine, (R)-5,6,6a,7-tetrahydro-6-methyl-4H-dibenzoquinoline-11,12-diol], the “concentrations obtained by iontophoretic administration” value in series [4] is “lower end of the therapeutic concentration range”.
